Among the test systems are 786-0 renal; SNB-19 CNS; OVCAR-5 ovarian; SK-MEL-28 melanoma; EKVX NSCLC; HOP-62 NSCLC; MALME-3M melanoma; IGROV1 ovarian.
Common to all, as to experiment: NCI-60 cell line screen, 48 h

These results are taken from PubChem BioAssay (NCI).

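1) Cells in 96-well plates. 2) Compound, 48 h, 5 concentrations. 3) Linear interpolation between surrounding doses. 4) Unreached endpoint = highest concentration. GI50 is the concentration that inhibits growth by half. At the TGI there is no net growth.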

Turning to `CCCCCCCC(=O)OCC(=O)[C@]1(O)Cc2c(O)c3c(c(O)c2[C@@H](OC2CC(N)C(O)C(C)O2)C1)C(=O)c1c(OC)cccc1C3=O` (stereo not given in full), the GI50 with 786-0 renal was 0.0622 µM; with SNB-19 CNS, 0.0601 µM; in the assay on OVCAR-5 ovarian it was 0.422 µM; in the assay on SK-MEL-28 melanoma, 0.199 µM; in the assay with EKVX NSCLC, 0.236 µM; in the assay on HOP-62 NSCLC it was 0.162 µM. Further, the TGI in the assay on 786-0 renal was found to be 1.25 µM; in the assay on SNB-19 CNS, 1.25 µM; in the assay on OVCAR-5 ovarian, 1.24 µM; in the assay on SK-MEL-28 melanoma, 0.902 µM; in the assay on EKVX NSCLC it was 1.58 µM; in the assay on HOP-62 NSCLC, 1.74 µM.
Turning to `CC1=C(C)C2(O)C(=C(C)C1=O)/C(=C(/O)c1ccccc1)c1nc3ccccc3n12` (stereo not given), the GI50 was 19.1 µM with MALME-3M melanoma; 29.5 µM in the assay with 786-0 renal; 12.3 µM in the assay with IGROV1 ovarian; 19.7 µM with SNB-19 CNS; 20.6 µM in the assay on SK-MEL-28 melanoma; 24.5 µM in the assay on EKVX NSCLC. The GI50 in the assay on HOP-62 NSCLC was 21.9 µM. In addition, the TGI came to 43.9 µM in the assay with MALME-3M melanoma; 83.9 µM in the assay on 786-0 renal; 30.4 µM in the assay with IGROV1 ovarian; 46.9 µM in the assay with SNB-19 CNS; 49.4 µM in the assay with SK-MEL-28 melanoma; 60.4 µM with EKVX NSCLC. This compound registered a TGI with HOP-62 NSCLC of 48.7 µM.
For the compound `c1ccc([As]=[As]c2ccccc2)cc1` (stereo not given), the GI50 in the assay on MALME-3M melanoma was 1.29 µM; with 786-0 renal it was 1.28 µM; in the assay with IGROV1 ovarian, 0.666 µM; in the assay on SNB-19 CNS, 1.42 µM; in the assay with OVCAR-5 ovarian, 1.5 µM; in the assay on SK-MEL-28 melanoma, 0.922 µM. For the same compound, the GI50 in the assay on HOP-62 NSCLC is 1.78 µM. Besides, the TGI in the assay with MALME-3M melanoma is 3.23 µM; with 786-0 renal, 3.19 µM; in the assay on IGROV1 ovarian, 2.76 µM; in the assay on SNB-19 CNS, 2.8 µM; in the assay on OVCAR-5 ovarian it was 3.07 µM; with SK-MEL-28 melanoma, 2.32 µM. In the assay on HOP-62 NSCLC, this compound yielded a TGI of 3.33 µM.
As for `COc1ccccc1NS(=O)(=O)c1ccc2oc(SC(C)C)nc2c1`, the GI50 with MALME-3M melanoma is 12.9 µM; in the assay with 786-0 renal, 26.6 µM; with SNB-19 CNS, 37.7 µM; with OVCAR-5 ovarian, 48.9 µM; in the assay on SK-MEL-28 melanoma it was 37.5 µM; in the assay with EKVX NSCLC, 6.4 µM. Further, the GI50 in the assay with HOP-62 NSCLC is 31.2 µM. Also, the TGI in the assay on MALME-3M melanoma is 37.5 µM; in the assay with 786-0 renal it was greater than 100 µM; with SNB-19 CNS, greater than 100 µM; with OVCAR-5 ovarian, greater than 100 µM; with SK-MEL-28 melanoma, greater than 100 µM; in the assay with EKVX NSCLC, 78.7 µM. In addition, in the assay with HOP-62 NSCLC, the TGI is greater than 100 µM.
For the compound `O=C(c1ccccc1)n1c(-c2ccccc2)cs/c1=N\S(=O)(=O)c1ccc(N2N=C3c4ccccc4CC3C2c2cccs2)cc1` (stereo not given), the GI50 was 21.8 µM in the assay with 786-0 renal; greater than 100 µM in the assay with IGROV1 ovarian; 59.3 µM with SNB-19 CNS; 34.3 µM in the assay on OVCAR-5 ovarian; greater than 100 µM in the assay on SK-MEL-28 melanoma; 40.7 µM with EKVX NSCLC. Moreover, the GI50 with HOP-62 NSCLC was 23.7 µM. The TGI in the assay with 786-0 renal was 96.7 µM; in the assay on IGROV1 ovarian, greater than 100 µM; with SNB-19 CNS it was greater than 100 µM; with OVCAR-5 ovarian, greater than 100 µM; in the assay on SK-MEL-28 melanoma, greater than 100 µM; in the assay with EKVX NSCLC it was greater than 100 µM. The compound also registered a TGI in the assay with HOP-62 NSCLC of 57.1 µM.
In the case of `NC(=S)N=Nc1c(O)c2ccccc2c2ccccc12`, the GI50 is 1.96 µM in the assay on MALME-3M melanoma; 31.7 µM with 786-0 renal; 27.2 µM in the assay with IGROV1 ovarian; 3.12 µM in the assay on SNB-19 CNS; 2.45 µM in the assay with OVCAR-5 ovarian; 2.98 µM with SK-MEL-28 melanoma. In addition, the GI50 with HOP-62 NSCLC was 2.31 µM. Besides, the TGI is 3.58 µM in the assay with MALME-3M melanoma; 88.2 µM in the assay with 786-0 renal; greater than 100 µM in the assay on IGROV1 ovarian; 12.6 µM with SNB-19 CNS; 6.94 µM in the assay with OVCAR-5 ovarian; 10 µM in the assay with SK-MEL-28 melanoma. The TGI in the assay with HOP-62 NSCLC worked out at 7.87 µM.
As to `COc1ccc(Cn2cc3c(c2-c2ccccc2)CCc2cnoc2-3)cc1N`, the GI50 was 0.602 µM with 786-0 renal; 0.329 µM with IGROV1 ovarian; 0.531 µM in the assay on SNB-19 CNS; 0.629 µM in the assay with OVCAR-5 ovarian; 0.247 µM in the assay on SK-MEL-28 melanoma; 0.359 µM in the assay on EKVX NSCLC. In addition, the GI50 in the assay with HOP-62 NSCLC is 0.433 µM. Further, the TGI in the assay on 786-0 renal, in the assay with IGROV1 ovarian, in the assay with SNB-19 CNS, in the assay with OVCAR-5 ovarian, in the assay on SK-MEL-28 melanoma and in the assay on EKVX NSCLC was greater than 100 µM each time. This compound displayed a TGI with HOP-62 NSCLC greater than 100 µM.
Regarding `O=C(Nc1ccccc1O)c1ccc(NS(=O)(=O)c2cccc3cccnc23)cc1`, the GI50 with MALME-3M melanoma is 0.827 µM; with 786-0 renal, 2.4 µM; in the assay on IGROV1 ovarian it was 3.06 µM; with SNB-19 CNS, 2.89 µM; with OVCAR-5 ovarian, 0.744 µM; with SK-MEL-28 melanoma it was 0.834 µM. For the same compound, the GI50 with HOP-62 NSCLC was 0.855 µM. Also, the TGI is greater than 25 µM in the assay with MALME-3M melanoma; 6.4 µM with 786-0 renal; 9.95 µM with IGROV1 ovarian; greater than 14.8 µM in the assay on SNB-19 CNS; greater than 12.7 µM with OVCAR-5 ovarian; 4.91 µM with SK-MEL-28 melanoma. Also, the TGI in the assay on HOP-62 NSCLC is 7.33 µM.
For the compound `Cc1ccc(-c2nc([P+](c3ccccc3)(c3ccccc3)c3ccccc3)c(Nc3ccccc3)o2)cc1`, the GI50 in the assay on MALME-3M melanoma was 0.25 µM; in the assay on 786-0 renal it was 1.18 µM; in the assay with IGROV1 ovarian, 0.708 µM; in the assay with SNB-19 CNS, 1.16 µM; in the assay with OVCAR-5 ovarian, 1.31 µM; in the assay with SK-MEL-28 melanoma, 1.22 µM. For the same compound, the GI50 in the assay on EKVX NSCLC was 0.815 µM. Moreover, the TGI in the assay with MALME-3M melanoma is 0.801 µM; in the assay on 786-0 renal, 2.57 µM; with IGROV1 ovarian it was 2.08 µM; in the assay on SNB-19 CNS it was 2.41 µM; in the assay with OVCAR-5 ovarian, 2.68 µM; in the assay on SK-MEL-28 melanoma, 2.52 µM. In the assay with EKVX NSCLC, this compound gave a TGI of 2.18 µM.
Consider `Clc1ccccc1C(Nc1ncccn1)Nc1ncccn1`, for which the TGI in the assay with 786-0 renal, with IGROV1 ovarian, in the assay with SNB-19 CNS, in the assay on OVCAR-5 ovarian, in the assay with SK-MEL-28 melanoma and in the assay on EKVX NSCLC was greater than 100 µM throughout. The compound also came in with a TGI in the assay on HOP-62 NSCLC greater than 100 µM.
For the compound `CC12CCC3c4cc(Br)c(O)c(Br)c4CCC3C1CCC2O` (stereo not given), the TGI was 30.8 µM in the assay on MALME-3M melanoma; 42 µM with 786-0 renal; 34 µM with IGROV1 ovarian; greater than 100 µM in the assay with OVCAR-5 ovarian; 34.9 µM with SK-MEL-28 melanoma; 45.4 µM with EKVX NSCLC.
In the case of `Oc1[nH]c2ccccc2c1N=Nc1c(F)c(F)c(F)c(F)c1F`, the TGI with 786-0 renal is 50.5 µM; with IGROV1 ovarian it was greater than 100 µM; in the assay on SNB-19 CNS, greater than 100 µM; with OVCAR-5 ovarian, greater than 100 µM; in the assay on SK-MEL-28 melanoma, greater than 100 µM; in the assay on EKVX NSCLC it was greater than 100 µM. Also, the TGI in the assay on HOP-62 NSCLC was greater than 100 µM.
Turning to `NNC(=O)c1ccc(OCc2nc3ccccc3[nH]2)cc1`, the TGI with MALME-3M melanoma, in the assay with 786-0 renal, in the assay with IGROV1 ovarian, in the assay on SNB-19 CNS, in the assay with OVCAR-5 ovarian and in the assay on SK-MEL-28 melanoma was greater than 100 µM in each case. This compound also came in with a TGI in the assay with EKVX NSCLC greater than 100 µM.
For the compound `COc1ccc(C2C=C(c3ccc(Cl)cc3)N=C3SC=C(C)N32)c(Br)c1` (stereo not given), the GI50 with MALME-3M melanoma is 8.31 µM; in the assay with 786-0 renal, 3.57 µM; in the assay on IGROV1 ovarian, 3.62 µM; in the assay on SNB-19 CNS it was 5.25 µM; with OVCAR-5 ovarian, 3.12 µM; in the assay with SK-MEL-28 melanoma, 5.11 µM. Also, the GI50 in the assay on HOP-62 NSCLC was 3.96 µM. Moreover, the TGI in the assay with MALME-3M melanoma is 22.8 µM; with 786-0 renal it was 25.4 µM; with IGROV1 ovarian, 20.4 µM; in the assay on SNB-19 CNS it was 21.7 µM; in the assay on OVCAR-5 ovarian, 11.2 µM; in the assay with SK-MEL-28 melanoma, 17.4 µM. Besides, the TGI in the assay on HOP-62 NSCLC worked out at 13.4 µM.
In the case of `O=c1cc(-c2ccccc2)oc2cc(OC/C(=N/O)c3ccc(F)cc3)ccc12`, the GI50 in the assay with 786-0 renal is 39.6 µM; in the assay on IGROV1 ovarian, 19.6 µM; in the assay on SNB-19 CNS, greater than 50 µM; in the assay on OVCAR-5 ovarian, greater than 50 µM; in the assay on SK-MEL-28 melanoma, 27.1 µM; in the assay on EKVX NSCLC, 17.2 µM. The GI50 with HOP-62 NSCLC is greater than 50 µM. The TGI in the assay with 786-0 renal, in the assay with IGROV1 ovarian, in the assay with SNB-19 CNS, in the assay on OVCAR-5 ovarian, in the assay on SK-MEL-28 melanoma and in the assay on EKVX NSCLC was greater than 50 µM in each case. This compound also returned a TGI in the assay on HOP-62 NSCLC greater than 50 µM.
Regarding `CCN1C[C@]2(COC)[C@H](O)C[C@H](OC)[C@]34C1[C@H]([C@H](OC)[C@H]23)[C@]1(OC(C)=O)[C@H]2[C@@H](OC(=O)c3ccccc3)[C@](O)(C[C@H]24)[C@@H](OC)[C@@H]1O`, the TGI in the assay with MALME-3M melanoma, in the assay on 786-0 renal, in the assay with IGROV1 ovarian, in the assay on SNB-19 CNS, in the assay on OVCAR-5 ovarian and in the assay on SK-MEL-28 melanoma was greater than 100 µM throughout. In the assay on EKVX NSCLC, the TGI is greater than 100 µM.
Turning to `O=C(NCc1ccco1)c1cccc(NC2=C(Cl)C(=O)N(Cc3ccccc3)C2=O)c1`, the GI50 was 3.94 µM with 786-0 renal; 2.44 µM in the assay on IGROV1 ovarian; 23.2 µM in the assay with SNB-19 CNS; 22.5 µM in the assay with OVCAR-5 ovarian; 16.4 µM in the assay on SK-MEL-28 melanoma; 34.8 µM in the assay on EKVX NSCLC. For the same compound, in the assay on HOP-62 NSCLC, the GI50 is 13.1 µM. Also, the TGI was 16.3 µM in the assay with 786-0 renal; 11 µM in the assay with IGROV1 ovarian; greater than 100 µM in the assay with SNB-19 CNS; 63.9 µM in the assay with OVCAR-5 ovarian; 46.6 µM in the assay with SK-MEL-28 melanoma; greater than 100 µM with EKVX NSCLC. The same compound displayed a TGI in the assay on HOP-62 NSCLC of 28.5 µM.
